Eleven compounds from patent US9062051B2, “Compounds and pharmaceutical compositions thereof for the treatment of proliferative disorders” (GALAPAGOS NV, priority 2014, dated 2015) can be followed below.

A word on the IC50: it is the point on the concentration scale where inhibition reaches its midpoint.

What all share (format): biochemical
One experiment deals with T1, EphA2 (UniProt Ref: P29317) (Homo sapiens, UniProt P29317).
T1 construct: purchased Reaction Biology
As to the kind of experiment: EphA2 assay (Reaction Biology HotSpot radioactive kinase assay). The conditions noted are these: ATP 10 μM; read-out: EphA2 potency IC50. Here is the method:
Inhibition of EphA2 (UniProt Ref: P29317) by a test compound is determined by a commercially available Reaction Biology proprietary nanoliter radioactive HotSpot^SM assay (Reaction Biology, One great valley parkway, Suite 2, Malvern Pa., 19355, USA). The principle of the assay consists of the measurement of incorporated ^33P into poly[Glu:Tyr] (4:1) (0.2 mg/mL) when the substrate is phosphorylated by the enzyme using [^33P]-γ-ATP and ATP (10 μM).
To determine the IC50, a serial dilution of compound is tested starting from 10, or 3 μM (highest dilution) with a 1/3 dilution.

The target in another experiment is T2, Recombinant EphA7 (Homo sapiens, UniProt Q15375).
T2 construct: purchased Carna 08-126
Nature of the experiment: EphA7 assay (33P incorporation into poly GT, filter plate). Conditions: EphA7 potency; 0.15 μM ATP; read-out: IC50. On the procedure: The principle of the assay consists of the measurement of incorporated ^33P into the substrate poly GT when phosphorylated by the enzyme EphA7 using [^33P]-γ-ATP and ATP. Unincorporated ^33P is removed by loading the samples on a filter plate (using a harvester, Perkin Elmer) and 6 subsequent washing steps. ^33P incorporated in polyGT is measured on a Topcount after addition of microscint to the filter plates (Perkin Elmer).
Recombinant EphA7 (Carna Cat#08-126, 2 ng per well) was incubated with 0.1 mg/mL Poly(Glu,Tyr)sodium salt (4:1), MW 20 000-50 000 (Sigma catalog number P0275) in kinase reaction buffer (10 mM MOPS pH 7.2, 5 mM DTT, 0.01% Triton-X100, 5 mM MnCl2, 0.5 mM Na3VO4, 5 mM beta-glycerolphosphate), 0.15 μM non-radioactive ATP, 0.125 μCi/25 μl ^33P-gamma-ATP (Perkin Elmer, catalog number NEG602K) final concentrations with or without 5 μL containing test compound or vehicle (DMSO, 1% final concentration), in a total volume of 25 μL, in a polypropylene 96-well plate (Greiner, V-bottom). After 90 min at 30° C., reactions were stopped by adding of 25 μL/well of 150 mM phosphoric acid. All of the terminated kinase reaction was transferred to prewashed (75 mM phosphoric acid) 96 well filter plates (Perkin Elmer catalog number 6005177) using a cell harvester (Perkin Elmer). Plates were washed 6 times with 300 μL per well of a 75 mM phosphoric acid solution and the bottom of the plates was sealed. 40 μL/well of Microscint-20 was added, the top of the plates was sealed and readout was performed using the Topcount (Perkin Elmer). The ability of a test compound to inhibit the kinase activity was determined using counts per minutes (cpm) measured by the Topcount as:
(§1) Cpm (cpd): cpm determined for sample with test compound present
(§2) Cpm (control): cpm determined for sample with positive control inhibitor (10 μM staurosporine)
(§3) Cpm (vehicle): cpm determined in the presence of vehicle (1% DMSO)
Dose dilution series were prepared for the compounds enabling the testing of dose-response effects in the EphA7 assay and the calculation of the IC50 for each compound. Each compound was routinely tested at concentration of 20 μM followed by a 1/5 serial dilution, 10 points in a final concentration of 1% DMSO. When potency of compound series increased, more dilutions may be prepared and/or the top concentration may be lowered (e.g. 5 μM, 1 μM).

The next experiment concerns the target T3, Recombinant EphB2 (Homo sapiens, UniProt P29323).
T3 construct: purchased Carna 08-129
T3 sequence (P29323 19-986 isoform P29323-2 limits assumed): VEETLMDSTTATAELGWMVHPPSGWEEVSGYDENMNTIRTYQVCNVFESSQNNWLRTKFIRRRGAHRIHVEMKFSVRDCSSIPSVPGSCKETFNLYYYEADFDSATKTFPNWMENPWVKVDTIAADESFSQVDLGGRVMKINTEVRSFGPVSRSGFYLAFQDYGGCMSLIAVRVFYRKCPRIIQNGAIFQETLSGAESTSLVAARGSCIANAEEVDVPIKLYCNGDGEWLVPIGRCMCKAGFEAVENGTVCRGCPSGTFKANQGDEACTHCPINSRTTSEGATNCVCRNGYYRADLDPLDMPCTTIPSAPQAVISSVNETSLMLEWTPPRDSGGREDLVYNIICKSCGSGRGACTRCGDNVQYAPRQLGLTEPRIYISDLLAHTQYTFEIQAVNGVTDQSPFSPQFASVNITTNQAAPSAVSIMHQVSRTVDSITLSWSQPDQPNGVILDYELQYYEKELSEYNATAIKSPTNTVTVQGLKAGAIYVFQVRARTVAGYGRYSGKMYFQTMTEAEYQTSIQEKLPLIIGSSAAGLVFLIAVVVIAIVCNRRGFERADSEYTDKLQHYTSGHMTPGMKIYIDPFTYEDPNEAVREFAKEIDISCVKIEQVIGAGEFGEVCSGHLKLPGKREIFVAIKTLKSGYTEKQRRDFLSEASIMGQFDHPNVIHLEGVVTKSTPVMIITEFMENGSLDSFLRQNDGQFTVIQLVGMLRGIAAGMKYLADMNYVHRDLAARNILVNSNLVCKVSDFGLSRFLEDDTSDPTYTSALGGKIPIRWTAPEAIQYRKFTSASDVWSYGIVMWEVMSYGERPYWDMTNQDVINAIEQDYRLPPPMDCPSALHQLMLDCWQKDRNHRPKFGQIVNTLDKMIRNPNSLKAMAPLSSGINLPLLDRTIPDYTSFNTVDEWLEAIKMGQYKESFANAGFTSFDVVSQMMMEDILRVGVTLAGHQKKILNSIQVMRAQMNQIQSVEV
As to the kind of experiment: EphB2 assay (33P incorporation into poly GT, filter plate). The conditions noted are these: read-out: EphB2 potency IC50. On the procedure: The principle of the assay consists of the measurement of incorporated ^33P into the substrate poly GT when phosphorylated by the enzyme EphB2 using [^33P]-γ-ATP and ATP. Unincorporated ^33P is removed by loading the samples on a filter plate (using a harvester, Perkin Elmer) and 6 subsequent washing steps. ^33P incorporated in polyGT is measured on a Topcount after addition of microscint to the filter plates (Perkin Elmer).
Recombinant EphB2 (Carna Cat#08-129, 0.6 ng per well) was incubated with 0.05 mg/mL Poly(Glu,Tyr)sodium salt (4:1), MW 20 000-50 000 (Sigma catalog number P0275) in kinase reaction buffer (10 mM MOPS pH 7.2, 5 mM DTT, 0.01% Triton-X100, 5 mM MnCl2, 0.5 mM Na3VO4, 5 mM beta-glycerolphosphate), 0.5 μM non-radioactive ATP, 0.25 μCi/25 μl ^33P-gamma-ATP (Perkin Elmer, catalog number NEG602K) final concentrations with or without 5 μL containing test compound or vehicle (DMSO, 1% final concentration), in a total volume of 25 μL, in a polypropylene 96-well plate (Greiner, V-bottom). After 45 min at 30° C., reactions were stopped by adding of 25 μL/well of 150 mM phosphoric acid. The experiment was then conducted as described for EphA7. The ability of a test compound to inhibit the kinase activity was determined using counts per minutes (cpm) measured by the Topcount as:
as §1, §2, §3
Dose dilution series were prepared for the compounds enabling the testing of dose-response effects in the EphB2 assay and the calculation of the IC50 for each compound. Each compound was routinely tested at concentration of 20 μM followed by a 1/5 serial dilution, 10 points in a final concentration of 1% DMSO. When potency of compound series increased, more dilutions may be prepared and/or the top concentration may be lowered (e.g. 5 μM, 1 μM).

T1 sequence (P29317 24-976): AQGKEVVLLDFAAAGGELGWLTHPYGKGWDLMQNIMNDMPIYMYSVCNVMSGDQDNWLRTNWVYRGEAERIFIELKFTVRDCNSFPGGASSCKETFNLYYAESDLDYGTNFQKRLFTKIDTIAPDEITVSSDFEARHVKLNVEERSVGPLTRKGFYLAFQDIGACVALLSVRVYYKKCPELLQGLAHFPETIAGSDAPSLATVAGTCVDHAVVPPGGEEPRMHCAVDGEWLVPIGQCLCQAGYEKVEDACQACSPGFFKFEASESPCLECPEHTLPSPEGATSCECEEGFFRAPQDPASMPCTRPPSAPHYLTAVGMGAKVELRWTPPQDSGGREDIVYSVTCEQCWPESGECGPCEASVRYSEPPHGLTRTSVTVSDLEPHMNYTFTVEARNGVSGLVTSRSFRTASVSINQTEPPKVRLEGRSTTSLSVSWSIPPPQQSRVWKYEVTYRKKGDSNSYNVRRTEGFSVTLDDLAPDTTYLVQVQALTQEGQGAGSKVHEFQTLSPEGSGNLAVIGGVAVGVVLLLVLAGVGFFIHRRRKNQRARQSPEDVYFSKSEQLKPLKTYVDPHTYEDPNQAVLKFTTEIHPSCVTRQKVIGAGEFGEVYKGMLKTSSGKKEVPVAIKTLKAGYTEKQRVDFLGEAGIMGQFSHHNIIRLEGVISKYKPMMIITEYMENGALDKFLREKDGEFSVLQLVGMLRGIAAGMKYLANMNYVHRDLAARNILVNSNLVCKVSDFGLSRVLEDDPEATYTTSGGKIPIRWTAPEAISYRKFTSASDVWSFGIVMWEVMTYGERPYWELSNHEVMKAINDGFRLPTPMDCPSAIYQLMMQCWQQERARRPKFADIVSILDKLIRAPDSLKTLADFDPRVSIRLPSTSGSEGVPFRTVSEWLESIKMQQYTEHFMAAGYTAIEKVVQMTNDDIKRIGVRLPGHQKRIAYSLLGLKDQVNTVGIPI
T2 sequence (Q15375 579-998 limits assumed): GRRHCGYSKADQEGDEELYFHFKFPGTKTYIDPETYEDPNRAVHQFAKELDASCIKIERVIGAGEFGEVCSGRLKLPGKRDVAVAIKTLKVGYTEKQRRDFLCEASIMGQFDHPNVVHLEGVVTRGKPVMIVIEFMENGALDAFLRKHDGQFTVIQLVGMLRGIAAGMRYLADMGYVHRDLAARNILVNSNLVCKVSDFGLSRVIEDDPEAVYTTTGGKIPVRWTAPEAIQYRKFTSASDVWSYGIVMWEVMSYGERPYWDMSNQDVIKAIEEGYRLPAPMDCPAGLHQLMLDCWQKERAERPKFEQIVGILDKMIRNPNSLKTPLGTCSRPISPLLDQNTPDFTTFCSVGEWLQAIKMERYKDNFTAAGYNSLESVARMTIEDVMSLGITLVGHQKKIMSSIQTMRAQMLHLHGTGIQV

With `CCc1n[nH]c2nc(-c3cc(NC(=O)c4cc(OC)cc(OCCCN)c4)cnc3C)ccc12` [Compound 46, 3-(3-Amino-propoxy)-N-[5-(3-ethyl-1H-pyrazolo[3,4-b]pyridin-6-yl)-6-methyl-pyridin-3-yl]-5-methoxy-benzamide], the IC50 at EphA2 lay in the range of 0.01 to 25 nM; on Recombinant EphA7, 500 to 1000 nM; on Recombinant EphB2 it was 25 to 50 nM.

For `CCc1n[nH]c2nc(-c3cc(NC(=O)c4cccc(C(F)(F)F)c4)cnc3C)ccc12` [Compound 42, N-[5-(3-Ethyl-1H-pyrazolo[3,4-b]pyridin-6-yl)-6-methyl-pyridin-3-yl]-3-trifluoromethyl-benzamide], the results for the IC50 at EphA2, on Recombinant EphA7 and at Recombinant EphB2 were 50 to 100 nM, greater than 1000 nM and greater than 100 nM, respectively.

With `Cc1ccc(NC(=O)c2cccc(C(F)(F)F)c2)cc1-c1ccc2c([C@@H](C)O)n[nH]c2n1` [Compound 56, N-{3-[3-((R)-1-Hydroxy-ethyl)-1H-pyrazolo[3,4-b]pyridin-6-yl]-4-methyl-phenyl}-3-trifluoromethyl-benzamide], the values for the IC50 at EphA2, at Recombinant EphA7 and at Recombinant EphB2 were 0.01 to 25 nM, greater than 1000 nM and 0.01 to 25 nM, respectively.

For `CCc1n[nH]c2nc(-c3cc(NC(=O)c4cc(OCCN5CCOCC5)cc(C(F)(F)F)c4)ccc3C)ccc12` [Compound 36, N-[3-(3-Ethyl-1H-pyrazolo[3,4-b]pyridin-6-yl)-4-methyl-phenyl]-3-(2-morpholin-4-yl-ethoxy)-5-trifluoromethyl-benzamide], the results for the IC50 at EphA2, at Recombinant EphA7 and on Recombinant EphB2 were 0.01 to 25 nM, 500 to 1000 nM and greater than 100 nM, respectively.

As for `COc1cc(OC)cc(C(=O)Nc2cnc(C)c(-c3ccc4c(C5CC5)n[nH]c4n3)c2)c1` [Compound 34, N-(5-(3-cyclopropyl-1H-pyrazolo[3,4-b]pyridin-6-yl)-6-methylpyridin-3-yl)-3,5-dimethoxybenzamide], the 50% inhibitory concentration (IC50) on Recombinant EphA7 is greater than 1000 nM; at Recombinant EphB2, 0.01 to 25 nM.

In the case of `CCc1n[nH]c2nc(-c3cc(NC(=O)c4cc(OC)cc(OCCCN)c4)ccc3C)ccc12` [Compound 45, 3-(3-Amino-propoxy)-N-[3-(3-ethyl-1H-pyrazolo[3,4-b]pyridin-6-yl)-4-methyl-phenyl]-5-methoxy-benzamide], the IC50 on EphA2 was 0.01 to 25 nM; on Recombinant EphA7 it was 250 to 500 nM; on Recombinant EphB2, 0.01 to 25 nM.

Take `CCc1n[nH]c2nc(-c3cc(NC(=O)c4cc(C)cc(OCCN)c4)ccc3C)ccc12` [Compound 30, 3-(2-Amino-ethoxy)-N-[3-(3-ethyl-1H-pyrazolo[3,4-b]pyridin-6-yl)-4-methyl-phenyl]-5-methyl-benzamide]: the IC50 lay within 0.01 to 25 nM on EphA2, 250 to 500 nM on Recombinant EphA7 and 0.01 to 25 nM on Recombinant EphB2.

For the compound `Cc1cc(OCCN2CCOCC2)cc(C(=O)Nc2ccc(C)c(-c3ccc4c(C(C)O)n[nH]c4n3)c2)c1` (stereo not shown) [Compound 28, N-{3-[3-(1-Hydroxy-ethyl)-1H-pyrazolo[3,4-b]pyridin-6-yl]-4-methyl-phenyl}-3-methyl-5-(2-morpholin-4-yl-ethoxy)-benzamide], the values for the IC50 at EphA2, on Recombinant EphA7 and on Recombinant EphB2 were 25 to 50 nM, greater than 1000 nM and 0.01 to 25 nM, respectively.

Consider `CCc1n[nH]c2nc(-c3cc(NC(=O)c4cc(OC)cc(C5CC5)c4)cnc3C)ccc12` [Compound 38, 3-Cyclopropyl-N-[5-(3-ethyl-1H-pyrazolo[3,4-b]pyridin-6-yl)-6-methyl-pyridin-3-yl]-5-methoxy-benzamide], for which the half-inhibitory concentration (IC50) on EphA2 was 0.01 to 25 nM; at Recombinant EphA7, 250 to 500 nM; at Recombinant EphB2, greater than 100 nM.

As to `CCc1n[nH]c2nc(-c3cc(NC(=O)c4cc(C)cc(OCCCN)c4)ccc3C)ccc12` [Compound 31, 3-(3-Amino-propoxy)-N-[3-(3-ethyl-1H-pyrazolo[3,4-b]pyridin-6-yl)-4-methyl-phenyl]-5-methyl-benzamide], the figures for the IC50 at EphA2, at Recombinant EphA7 and at Recombinant EphB2 were 0.01 to 25 nM, 0.01 to 250 nM and 0.01 to 25 nM, respectively.

Turning to `CCc1n[nH]c2nc(-c3cc(NC(=O)c4cc(OC)cc(OCCN5CCOCC5)c4)cnc3C)ccc12` [Compound 40, N-[5-(3-Ethyl-1H-pyrazolo[3,4-b]pyridin-6-yl)-6-methyl-pyridin-3-yl]-3-methoxy-5-(2-morpholin-4-yl-ethoxy)-benzamide], the IC50 on Recombinant EphA7 was greater than 1000 nM; on Recombinant EphB2, greater than 100 nM.
